Values quoted from earlier work as cited in US20090054377A1, “COMPOSITIONS AND METHODS FOR SMOKING CESSATION” (MODUS BIOLOGICAL MEMBRANES LTD., priority 2004, published 2009).
Like-named read-outs stand apart in the source and are kept apart here.

Experiments:
smokers [1] = test system: smokers
smokers [2] = conditions: in vivo
[3] = other smoking cessation remedies

SMILES: CC(NC(C)(C)C)C(=O)c1cccc(Cl)c1 (stereo not shown) [Bupropion (Zyban), Bupropion]
- % Quitters (smokers [1]; 300 mg/day): 25%
- Absolute quit rate (quit rate − quit rate of placebo) (smokers [1]; 300 mg/day): 11
- % Quitters (smokers [1]; [3]): 22.5%
- Absolute quit rate (quit rate − quit rate of placebo) (smokers [1]; [3]): 13.5
- Adverse Events: Anxiety (smokers [2]): 8%
- Adverse Events: Constipation (smokers [2]): 8%
- Adverse Events: Diarrhea (smokers [2]): 4%
- Adverse Events: Dizziness (smokers [2]): 8-10%
- Adverse Events: Dream abnormality (smokers [2]): 5%
- Adverse Events: Dry Mouth (smokers [2]): 1-11%
- Adverse Events: Insomnia (smokers [2]): 31-40%
- Adverse Events: Rhinitis (smokers [2]): 12%
- Adverse Events: Seizures (smokers [2]): 0.4%
